According to patent US10544143B2, “4-azaindole compounds” (BRISTOL-MYERS SQUIBB COMPANY, priority 2017, dated 2020):
pIC50: −log10 of the molar value. Like-named read-outs stand apart in the source and are kept apart here.

Columns and labels:
[1] = molecular target: human TLR9 (Homo sapiens (Human), UniProt Q9NR96); experiment: TLR9 inhibition reporter assay (HEK-Blue SEAP); conditions: ODN2006 5 nM;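 further: SEAP driven by an IFN-β minimal promoter with NF-κB and AP-1 sites, read after 22 h, compounds dosed 0.05 nM–50 µM, inhibition scaled between agonist plus DMSO and reference-inhibitor wells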
[2] = molecular target: human TLR7 (Homo sapiens (Human), UniProt Q9NYK1); experiment: TLR7 inhibition reporter assay (HEK-Blue SEAP); assay type: cell-based; conditions: HEK-Blue human TLR7 cells, gardiquimod 7.5 μM
Description: HEK-Blue™-cells (Invivogen) overexpressing human TLR7, TLR8 or TLR9 receptors were used for screening inhibitors of these receptors using an inducible SEAP (secreted embryonic alkaline phosphatase) reporter gene under the control of the IFN-β minimal promoter fused to five NF-κB and AP-1-binding sites. Briefly, cells are seeded into Greiner 384 well plates (15000 cells per well for TLR7, 20,000 for TLR8 and 25,000 for TLR9) and then treated with test compounds in DMSO to yield a final dose response concentration range of 0.05 nM-50 μM. After a 30 minute compound pre-treatment at room temperature, the cells are then stimulated with a TLR7 ligand (gardiquimod at a final concentration of 7.5 μM), TLR8 ligand (R848 at a final concentration of 15.9 μM) or TLR9 ligand (ODN2006 at a final concentration of 5 nM) to activate NF-κB and AP-1 which induce the production of SEAP. After a 22 hour incubation at 37° C., 5% CO2, SEAP levels are determined with the addition of HEK-Blue™ Detection reagent (Invivogen), a cell culture medium that allows for detection of SEAP, according to manufacturer's specifications.

[3] = molecular target: human TLR8 (Homo sapiens (Human), UniProt Q9NR97); experiment: TLR8 inhibition reporter assay (HEK-Blue SEAP); conditions: R848 15.9 μM;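 further: SEAP driven by IFN-β minimal promoter carrying NF-κB and AP-1 sites, compounds dosed 0.05 nM to 50 µM for 22 h, inhibition scaled between agonist-plus-DMSO and reference-inhibitor wells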
[4] = read-out: TLR9 IC50, HEK-Blue human TLR9 cells
[5] = read-out: TLR8 IC50, HEK-Blue human TLR8 cells
[6] = TLR9 IC50, HEK-Blue human TLR9 cells
[7] = TLR8 IC50, HEK-Blue human TLR8 cells

Chain of human TLR9 (Q9NR96 26-1032): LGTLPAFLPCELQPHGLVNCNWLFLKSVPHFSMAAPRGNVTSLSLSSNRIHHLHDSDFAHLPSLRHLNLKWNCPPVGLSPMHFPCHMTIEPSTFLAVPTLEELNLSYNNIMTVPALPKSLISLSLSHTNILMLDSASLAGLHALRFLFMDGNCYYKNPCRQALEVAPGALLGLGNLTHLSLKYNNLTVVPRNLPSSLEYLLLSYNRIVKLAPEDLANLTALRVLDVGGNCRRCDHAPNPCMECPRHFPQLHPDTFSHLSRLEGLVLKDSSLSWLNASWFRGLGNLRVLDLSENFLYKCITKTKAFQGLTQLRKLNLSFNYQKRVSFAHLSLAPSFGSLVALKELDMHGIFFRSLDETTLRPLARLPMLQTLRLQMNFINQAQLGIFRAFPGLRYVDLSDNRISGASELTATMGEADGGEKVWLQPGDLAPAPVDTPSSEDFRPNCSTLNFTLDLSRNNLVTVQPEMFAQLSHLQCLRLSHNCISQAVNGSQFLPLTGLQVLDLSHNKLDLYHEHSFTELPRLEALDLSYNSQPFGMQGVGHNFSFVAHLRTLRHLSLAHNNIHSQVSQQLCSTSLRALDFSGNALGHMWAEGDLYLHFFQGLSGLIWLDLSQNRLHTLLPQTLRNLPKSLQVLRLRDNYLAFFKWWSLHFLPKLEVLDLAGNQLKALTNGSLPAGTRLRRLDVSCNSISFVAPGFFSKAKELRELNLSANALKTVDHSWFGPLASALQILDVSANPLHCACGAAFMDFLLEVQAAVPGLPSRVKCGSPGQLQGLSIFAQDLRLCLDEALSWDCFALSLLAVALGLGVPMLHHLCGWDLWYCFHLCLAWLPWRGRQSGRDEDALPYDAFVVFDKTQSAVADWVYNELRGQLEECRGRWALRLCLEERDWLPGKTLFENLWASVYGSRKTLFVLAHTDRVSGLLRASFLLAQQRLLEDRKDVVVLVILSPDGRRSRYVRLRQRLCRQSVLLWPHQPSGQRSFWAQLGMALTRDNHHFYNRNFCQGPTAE
Chain of human TLR7 (Q9NYK1 27-1049): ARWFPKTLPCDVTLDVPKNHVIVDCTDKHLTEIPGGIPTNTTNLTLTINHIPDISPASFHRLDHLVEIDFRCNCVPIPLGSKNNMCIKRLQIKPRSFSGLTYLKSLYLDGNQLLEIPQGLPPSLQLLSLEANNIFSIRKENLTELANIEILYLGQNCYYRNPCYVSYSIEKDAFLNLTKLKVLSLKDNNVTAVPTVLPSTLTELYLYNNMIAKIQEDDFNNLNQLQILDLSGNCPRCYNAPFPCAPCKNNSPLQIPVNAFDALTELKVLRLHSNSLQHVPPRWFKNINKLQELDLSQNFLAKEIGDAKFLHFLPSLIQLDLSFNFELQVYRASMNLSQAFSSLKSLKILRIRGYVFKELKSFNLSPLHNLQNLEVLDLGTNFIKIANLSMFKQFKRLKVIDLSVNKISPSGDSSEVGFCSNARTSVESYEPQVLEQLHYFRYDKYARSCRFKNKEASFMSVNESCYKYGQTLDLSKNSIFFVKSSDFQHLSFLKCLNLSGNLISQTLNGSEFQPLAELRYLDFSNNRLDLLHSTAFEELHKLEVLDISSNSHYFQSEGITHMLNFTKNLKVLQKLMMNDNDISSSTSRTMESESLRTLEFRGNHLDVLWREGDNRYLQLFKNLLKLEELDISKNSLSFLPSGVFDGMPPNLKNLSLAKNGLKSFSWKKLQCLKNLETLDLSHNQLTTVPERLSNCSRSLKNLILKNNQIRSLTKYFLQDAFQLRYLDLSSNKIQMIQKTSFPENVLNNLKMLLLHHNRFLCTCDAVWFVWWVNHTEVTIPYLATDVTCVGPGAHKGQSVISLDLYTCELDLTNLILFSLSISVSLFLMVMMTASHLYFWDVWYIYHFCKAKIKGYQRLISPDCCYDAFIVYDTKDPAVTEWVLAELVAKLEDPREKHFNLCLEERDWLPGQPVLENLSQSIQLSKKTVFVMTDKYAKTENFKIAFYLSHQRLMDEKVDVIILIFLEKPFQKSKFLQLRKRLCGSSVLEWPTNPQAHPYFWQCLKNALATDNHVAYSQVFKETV
Chain of human TLR8 (Q9NR97 27-1041): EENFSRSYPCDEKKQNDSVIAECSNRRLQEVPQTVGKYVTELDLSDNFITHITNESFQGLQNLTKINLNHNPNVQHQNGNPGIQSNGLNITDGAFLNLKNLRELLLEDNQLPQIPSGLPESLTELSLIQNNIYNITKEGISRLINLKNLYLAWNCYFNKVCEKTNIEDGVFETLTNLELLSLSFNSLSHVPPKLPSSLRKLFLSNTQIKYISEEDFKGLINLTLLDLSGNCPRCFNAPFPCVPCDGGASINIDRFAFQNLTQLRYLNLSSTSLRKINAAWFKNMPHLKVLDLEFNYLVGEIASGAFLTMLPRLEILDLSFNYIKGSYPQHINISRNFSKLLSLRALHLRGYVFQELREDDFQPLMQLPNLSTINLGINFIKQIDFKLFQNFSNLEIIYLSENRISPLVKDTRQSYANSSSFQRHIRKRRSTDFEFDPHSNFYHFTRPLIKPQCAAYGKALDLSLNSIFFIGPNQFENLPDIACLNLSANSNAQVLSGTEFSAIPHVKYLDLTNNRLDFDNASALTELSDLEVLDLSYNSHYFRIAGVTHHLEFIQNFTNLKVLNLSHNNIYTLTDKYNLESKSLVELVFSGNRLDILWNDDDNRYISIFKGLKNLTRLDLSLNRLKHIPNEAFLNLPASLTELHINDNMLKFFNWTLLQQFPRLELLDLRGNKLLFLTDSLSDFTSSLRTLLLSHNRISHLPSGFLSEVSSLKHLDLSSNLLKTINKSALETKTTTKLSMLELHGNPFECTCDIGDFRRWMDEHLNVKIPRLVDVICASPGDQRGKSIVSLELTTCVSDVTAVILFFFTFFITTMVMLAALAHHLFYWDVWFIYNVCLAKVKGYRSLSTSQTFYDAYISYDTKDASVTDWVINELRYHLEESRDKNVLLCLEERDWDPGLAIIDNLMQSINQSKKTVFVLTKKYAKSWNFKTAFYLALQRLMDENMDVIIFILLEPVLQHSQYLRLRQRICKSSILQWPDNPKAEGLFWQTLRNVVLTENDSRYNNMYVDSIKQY

Compound | pIC50 [1, 4] | pIC50 [2] | pIC50 [3, 5] | pIC50 [1, 6] | pIC50 [3, 7]
Cc1c(-c2[nH]c3ccc(N4C[C@H](C)N(C(=O)CN(CCO)C(C)(C)C)C[C@H]4C)nc3c2C(C)C)cn2ncnc2c1C [Example 954] | 4.68 | 8.72 | 7.44 |  | 
Cc1c(-c2[nH]c3ccc(N4CCN(C(=O)CN5CC6(CCOC6)C5)CC4)nc3c2C(C)C)cn2ncnc2c1C [Example 956] | 5.02 | 9.00 | 8.72 |  | 
Cc1c(-c2[nH]c3ccc(N4CCN(C(=O)CN5CCC6(COC6)C5)CC4)nc3c2C(C)C)cn2ncnc2c1C [Example 957] | 4.61 | 9.04 | 8.54 |  | 
Cc1c(-c2[nH]c3ccc(N4C[C@@H](C)N(C(=O)CCN5CC6(C5)CS(=O)(=O)C6)C[C@@H]4C)nc3c2C(C)C)cn2ncnc2c1C [Example 959] | 5.11 | 8.85 | 9.54 |  | 
Cc1c(-c2[nH]c3ccc(N4C[C@@H](C)N(C(=O)CCN5CCC(F)(F)C5)C[C@@H]4C)nc3c2C(C)C)cn2ncnc2c1C [Example 962] | < 4.30 | 8.43 | 7.77 |  | 
Cc1c(-c2[nH]c3ccc(N4CCN(C(=O)CN(C)CC5CC5)CC4)nc3c2C(C)C)cn2ncnc2c1C [Example 966] | 5.22 | 8.62 | 8.89 |  | 
Cc1c(-c2[nH]c3ccc(N4CCN(C(=O)CN(C)C5COC5)CC4)nc3c2C(C)C)cn2ncnc2c1C [Example 967] | 4.41 | 8.10 | 8.92 |  | 
Cc1c(-c2[nH]c3ccc(N4CCN(C(=O)CNC5CC5)CC4)nc3c2C(C)C)cn2ncnc2c1C [Example 968] | 4.78 | 8.72 | 9.16 |  | 
Cc1c(-c2[nH]c3ccc(N4CCN(C(=O)CN(C)CCO)CC4)nc3c2C(C)C)cn2ncnc2c1C [Example 969] | 5.14 | 8.89 | 9.92 |  | 
CCNCC(=O)N1CCN(c2ccc3[nH]c(-c4cn5ncnc5c(C)c4C)c(C(C)C)c3n2)CC1 [Example 970] | 4.97 | 8.51 | 9.04 |  | 
Cc1c(-c2[nH]c3ccc(N4CCN(C(=O)CN5CCC(CO)CC5)CC4)nc3c2C(C)C)cn2ncnc2c1C [Example 971] | 5.03 | 8.52 | 9.07 |  | 
Cc1c(-c2[nH]c3ccc(N4C5CNCC4COC5)nc3c2C(C)C)cn2ncnc2c1C [Example 972] | 5.16 | 8.48 | 8.51 |  | 

Now those with a higher pIC50 [2], led by results:

pIC50 [1, 4] | pIC50 [2] | pIC50 [3, 5] | pIC50 [1, 6] | pIC50 [3, 7] | Compound
4.69 | 9.12 | 8.70 |  |  | Cc1c(-c2[nH]c3ccc(N4CCN(C(=O)CN(CCO)C(C)(C)C)[C@H](C)C4)nc3c2C(C)C)cn2ncnc2c1C [Example 955]
4.95 | 9.57 | 8.64 |  |  | Cc1c(-c2[nH]c3ccc(N4C[C@@H](C)N(C(=O)CCN5CC6(CCO6)C5)C[C@@H]4C)nc3c2C(C)C)cn2ncnc2c1C [Example 958]
5.50 | 9.11 | 9.49 |  |  | Cc1c(-c2[nH]c3ccc(N4C[C@@H](C)N(C(=O)CCN5CC6(CCOC6)C5)C[C@@H]4C)nc3c2C(C)C)cn2ncnc2c1C [Example 960]
5.08 | 9.46 | 9.10 |  |  | Cc1c(-c2[nH]c3ccc(N4C[C@@H](C)N(C(=O)CCN5CCC6(COC6)C5)C[C@@H]4C)nc3c2C(C)C)cn2ncnc2c1C [Example 961]
4.45 | 9.08 | 8.72 |  |  | Cc1c(-c2[nH]c3ccc(N4C[C@@H](C)N(C(=O)CCN5CCOCC5(C)C)C[C@@H]4C)nc3c2C(C)C)cn2ncnc2c1C [Example 963]
 | 9.28 |  | 5.51 | 9.60 | [2H]C([2H])([2H])NCCC(=O)N1C[C@H](C)N(c2ccc3[nH]c(-c4cn5ncnc5c(C)c4C)c(C(C)C)c3n2)C[C@H]1C [Example 964]
 | 9.41 |  | 5.19 | 8.96 | [2H]C([2H])([2H])N(CCC(=O)N1C[C@H](C)N(c2ccc3[nH]c(-c4cn5ncnc5c(C)c4C)c(C(C)C)c3n2)C[C@H]1C)C([2H])([2H])[2H] [Example 965]
